Values quoted from earlier work, collected in patent US20030212112A1, “Method for administering a phosphodiesterase 4 inhibitor” (SmithKline Beecham Corporation, priority 1999, published 2003).

Conditions: clinical studies / indications reported in background

| SMILES | side effects |
| --- | --- |
| COc1ccc(C2CNC(=O)C2)cc1OC1CCCC1 (centres unmarked) [rolipram] | psychotropic activity and produces gastrointestinal effects |
| CCCCn1c(=O)c2c(ncn2CC(C)=O)n(CCCC)c1=O [denbufylline] | may include pyrosis, nausea and emesis |
